# In patent publication US20140170208A1, “TRANSDERMAL PATCH FORMULATION” (LABTEC GMBH, priority 2009, published 2014):
# Read-outs that look alike come from different tables or passages of the source.
# Tests used:
# [1] = Description: Pilot Test Regarding the Solubility of Rasagiline Base in Non-Volatile Solvents for Use in a TDS
# 1.1 Solubility of Rasagiline Base
# [2] = remark: listed apart in the source
# Protocol: 1.5 Further Solubility Experiments Using IPM and “Silicone Oil 1000”
# 1.7 Concentrating of Rasagiline in IPM
# 2.2 Solubility of Rasagiline in Polidocanol
# Experiment 3.8: Rasagiline Solubility in a Plastoid Bneutral Oil Solution
# • 50 mg rasagiline WE 8596 in 300 mg Plastoid B-solution from exp.
# [3] = remark: listed apart in the source
# Protocol: Rasagiline base (50 mg) was dissolved in the presented solvents (0.14 g) and the placed into an over at 70° C. to monitor its loss.
# [4] = ca. 20-25 mg in 0.5 g or mL, ca. 1:20 mixture
# [5] = ca. 20-25 mg in 1.0 g or mL, ca. 1:40 mixture
smiles,measurement,setting,value
"C#CCN[C@@H]1CCc2ccccc21 [rasagiline base, rasagiline]",Solubility of rasagiline base in Cremophor EL,[1]; [4],Nearly completely
same,Solubility of rasagiline base in Glycerol anhydrous,[1]; [4],Not Solubilised
same,Solubility of rasagiline base in Isopropyl myristate (IPM),[1]; [4],Solubilised
same,Solubility of rasagiline base in PEG 400,[1]; [4],Solubilised
same,Solubility of rasagiline base in Polysorbat 80,[1]; [4],Solubilised
same,Solubility of rasagiline base in Propylenglycol,[1]; [4],Solubilised
same,Solubility of rasagiline base in Silicone oil 1000,[1]; [4],Not Solubilised
same,Solubility of rasagiline base in Vitamin-E-acetate,[1]; [4],Nearly completely
same,"Solubility of rasagiline base in paraffine, viscous",[1]; [4],Not Solubilised
same,Solubility of rasagiline base in Cremophor EL,[1]; [5],Solubilised
same,Solubility of rasagiline base in Glycerol anhydrous,[1]; [5],"Not completely solubilised,"
same,Solubility of rasagiline base in Isopropyl myristate (IPM),[1]; [5],Solubilised
same,Solubility of rasagiline base in PEG 400,[1]; [5],Solubilised
same,Solubility of rasagiline base in Polysorbat 80,[1]; [5],Solubilised
same,Solubility of rasagiline base in Propylenglycol,[1]; [5],Solubilised
same,Solubility of rasagiline base in Silicone oil 1000,[1]; [5],Solubilised
same,Solubility of rasagiline base in Vitamin-E-acetate,[1]; [5],Solubilised
same,"Solubility of rasagiline base in paraffine, viscous",[1]; [5],Solubilised
same,Rasagiline solubility in a Plastoid B neutral oil solution,[2],dissolved
same,Solubility in silicone oil 1000,[2],25-30 mg/g silicone oil 1000
same,Solubility of rasagiline in polidocanol,[2],completely soluble
same,Loss of rasagiline substance after removal of solvent by drying (FIG. 3),"[3]; 50 mg in 0.14 g pure water, oven at 70° C.",significant sublimation
same,Sublimation of rasagiline base at 60-70° C.,"[3]; melted in beaker glass at 60-70° C., covered with ice-cold watch glass",re-sublimates
